Counter-ions that a name gives are not always drawn.
Biological target: T1, 5-HT1 -like receptor (Oryctolagus cuniculus, UniProt P49144)
T1 construct: contraction of the saphenous vein of New Zealand White rabbits; from tissue; host or cells: saphenous vein of New Zealand White rabbits
Assay: Agonist-mediated contraction of rabbit saphenous vein
Set-up: species or system New Zealand White rabbits
Conditions: from plots of percentage 5-HT (1 μm) response against agonist concentration, read-out: pEC50 (-log10 EC50), agonist potency (converted)
Method: The activity of test compounds as agonists of the 5-HT1 -like receptor was measured in terms of their ability to mediate contraction of the saphenous vein of New Zealand White rabbits, using the procedure described in Arch. Pharm., 1990, 342, 111. Agonist potencies were calculated as -log10 EC50 (pEC50) values, from plots of percentage 5-HT (1 μm) response against the concentration of the agonist.

T1 sequence (P49144 whole entry): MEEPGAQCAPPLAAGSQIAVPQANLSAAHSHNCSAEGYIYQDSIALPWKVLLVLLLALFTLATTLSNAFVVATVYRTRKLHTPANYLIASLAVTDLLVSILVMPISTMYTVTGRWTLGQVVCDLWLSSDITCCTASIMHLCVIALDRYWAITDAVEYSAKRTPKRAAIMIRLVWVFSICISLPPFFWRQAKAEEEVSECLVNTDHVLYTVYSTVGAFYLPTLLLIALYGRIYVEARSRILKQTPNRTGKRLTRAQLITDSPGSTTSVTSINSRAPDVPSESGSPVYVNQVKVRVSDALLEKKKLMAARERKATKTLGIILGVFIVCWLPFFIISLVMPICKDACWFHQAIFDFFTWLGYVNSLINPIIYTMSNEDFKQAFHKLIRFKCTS

Cc1noc(-c2ccc3[nH]nc(CCN)c3c2)n1 [Example 2, 2-[5-(3-Methyl-1,2,4-oxadiazol-5-yl)-1H-indazol-3-yl])ethylamine hydrogen oxalate]
EC50: ≤ 10 µM
